In patent EP4714938A1, “HDAC1/2 SELECTIVE INHIBITOR AND USE THEREOF” (Wigen Biomedicine Technology (Shanghai) Co., Ltd., priority 2023, dated 2024):

Columns and labels:
293T cell = experiment: Inhibition of cell proliferation (CTG, intracellular ATP); format: cell-based; details: Homo sapiens, HEK-293T, 72 h
Experimental: (§1) Jurkat or 293T cells were seeded into a 96-well plate at 3000 cells/well. After overnight adherence culture, the serially diluted compound in DMSO was added. After 72 h, the intracellular ATP level was determined by CTG. The IC50 for the inhibition of cell proliferation by the compounds was calculated compared to the DMSO group. Table 7. Inhibitory activity of compounds of the present disclosure against Jurkat/293T cell proliferation (IC50, µM)

Jurkat cell = experiment: as above; format: cell-based; details: Homo sapiens, Jurkat, 72 h
Experimental: as §1

HDAC10 = biological target: T1, HDAC10 (Homo sapiens, UniProt Q969S8); experiment: biochemical
T1 sequence (Q969S8 1-669): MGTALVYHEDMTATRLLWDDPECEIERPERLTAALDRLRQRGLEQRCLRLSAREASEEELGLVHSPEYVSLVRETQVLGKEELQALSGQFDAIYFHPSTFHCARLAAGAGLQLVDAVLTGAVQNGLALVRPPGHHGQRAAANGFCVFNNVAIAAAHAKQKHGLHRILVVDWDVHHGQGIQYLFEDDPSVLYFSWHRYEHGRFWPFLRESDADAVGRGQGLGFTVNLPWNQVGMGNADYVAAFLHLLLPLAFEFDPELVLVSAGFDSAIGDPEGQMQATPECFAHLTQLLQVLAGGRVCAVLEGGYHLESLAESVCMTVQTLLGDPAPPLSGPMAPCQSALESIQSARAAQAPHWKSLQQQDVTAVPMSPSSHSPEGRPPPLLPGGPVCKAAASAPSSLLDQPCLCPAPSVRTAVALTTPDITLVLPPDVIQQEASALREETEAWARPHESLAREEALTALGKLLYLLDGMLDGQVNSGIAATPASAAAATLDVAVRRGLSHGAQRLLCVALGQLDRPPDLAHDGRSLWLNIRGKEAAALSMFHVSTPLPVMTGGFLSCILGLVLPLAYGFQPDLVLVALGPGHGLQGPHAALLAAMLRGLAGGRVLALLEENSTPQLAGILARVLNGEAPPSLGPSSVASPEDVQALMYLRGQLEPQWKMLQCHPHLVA
Experimental: (§2) The compounds of the present disclosure were assayed for enzyme inhibitory activity against various subtypes of HDAC enzymes by the FRET method. The various subtypes of HDAC enzymes were obtained either through purification or direct purchase of assay kits.
(§3) The specific method was as follows: The enzyme was added to a 384-well plate, and a reaction buffer was added to the control well. Serially diluted DMSO sample solutions were added to the reaction wells, and the plate was incubated at room temperature for 15 min. Then a chromogenic agent was added to stop the reaction, and fluorescence was generated. The fluorescence intensity was measured using an EnVision multi-label microplate reader (excitation: 355 nm, emission: 460 nm). The endpoint value was read after the color development reached stability. The inhibition IC50 of the compounds was calculated using GraphPad Prism4 software relative to DMSO.

HDAC5 = HDAC5 (Homo sapiens, UniProt Q9UQL6); experiment: HDAC enzyme inhibitory activity, FRET method; format: biochemical; details: Table 6; read-out: IC50 HDAC subtype 5
Sequence of HDAC5 (Q9UQL6 whole entry, species assumed): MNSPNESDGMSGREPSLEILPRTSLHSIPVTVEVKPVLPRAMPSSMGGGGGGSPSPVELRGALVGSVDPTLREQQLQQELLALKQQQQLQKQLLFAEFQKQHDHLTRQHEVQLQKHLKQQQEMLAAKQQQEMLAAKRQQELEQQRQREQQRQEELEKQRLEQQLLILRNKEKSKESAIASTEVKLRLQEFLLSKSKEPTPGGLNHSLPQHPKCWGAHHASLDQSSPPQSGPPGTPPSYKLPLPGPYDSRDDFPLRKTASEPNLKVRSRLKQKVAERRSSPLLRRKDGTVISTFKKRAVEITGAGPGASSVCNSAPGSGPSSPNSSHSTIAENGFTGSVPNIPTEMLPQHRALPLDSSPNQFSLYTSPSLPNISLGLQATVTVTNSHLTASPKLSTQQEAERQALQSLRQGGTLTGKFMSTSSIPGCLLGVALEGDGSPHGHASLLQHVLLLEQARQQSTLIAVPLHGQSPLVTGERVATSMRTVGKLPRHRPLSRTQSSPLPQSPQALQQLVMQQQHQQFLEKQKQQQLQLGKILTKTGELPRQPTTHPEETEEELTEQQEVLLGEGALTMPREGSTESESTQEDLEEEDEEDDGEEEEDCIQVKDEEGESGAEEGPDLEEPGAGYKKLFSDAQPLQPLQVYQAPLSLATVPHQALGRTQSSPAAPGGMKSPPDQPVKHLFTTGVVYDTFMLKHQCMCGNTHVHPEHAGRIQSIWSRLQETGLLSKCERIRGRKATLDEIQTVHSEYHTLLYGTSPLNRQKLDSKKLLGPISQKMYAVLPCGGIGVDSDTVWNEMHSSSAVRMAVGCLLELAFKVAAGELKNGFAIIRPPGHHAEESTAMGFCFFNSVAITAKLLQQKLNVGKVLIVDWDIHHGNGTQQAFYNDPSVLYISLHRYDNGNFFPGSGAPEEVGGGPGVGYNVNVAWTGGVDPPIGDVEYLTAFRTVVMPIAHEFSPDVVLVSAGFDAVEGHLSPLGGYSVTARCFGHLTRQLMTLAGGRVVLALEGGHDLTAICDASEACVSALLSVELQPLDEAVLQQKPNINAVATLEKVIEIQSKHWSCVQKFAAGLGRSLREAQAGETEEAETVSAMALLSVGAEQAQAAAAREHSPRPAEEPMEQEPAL
Experimental: as §2, §3

[1] = Stability in liver microsomes; format: in vitro ADME; details: for half-life at 1 µM: 1 µM compound, 37 °C, NADPH regeneration system
Experimental: After the 1 µM compound was individually incubated at 37 °C for various durations with […] liver microsomes from humans, monkeys, beagles, rats, or mice in the presence of an NADPH regeneration system, LC-MS-MS was used to analyze the remaining amount of the compound, and T1/2 was calculated. Table 10. Evaluation results of stability of compounds of the present disclosure in human and mouse liver microsomes

[2] = Pharmacokinetic experiment in mice; format: in vivo, CD-1 female mice; details: mouse, plasma
Experimental: CD-1 female mice aged 7 to 10 weeks were intravenously administered and orally administered at doses of 1 mg/kg and 10 mg/kg, respectively. The mice were fasted for at least 12 h before the administration and given food 4 h after the administration, and they were given ad libitum access to water during the experiment.
On the day of the experiment, animals in the intravenous group were given the corresponding compound by single injection via the tail vein at an administration volume of 10 mL/kg; and animals in the oral group were given the corresponding compound by single intragastric injection at an administration volume of 10 mL/kg. The animals were weighed before administration, and the administration volume was calculated according to the body weight. The sample collection time points were 0.083 h, 0.167 h, 0.5 h, 1 h, 2 h, 4 h, 8 h, and 24 h.
About 200 µL of whole blood was collected through the orbital venous plexus at each time point and used to prepare plasma for concentration determination by high-performance liquid chromatography-tandem mass spectrometry (LC-MS/MS). The plasma concentrations were processed using a non-compartmental model of Winnolin pharmacokinetic software, and the pharmacokinetic parameters were calculated using a linear-log trapezoidal method. Table 9. Results of in vivo pharmacokinetic evaluation of compounds of the present disclosure

HDAC7 = biological target: T2, HDAC7 (Homo sapiens, UniProt Q8WUI4); experiment: HDAC enzyme inhibitory activity, FRET method; format: biochemical; details: Table 6; read-out: IC50 HDAC subtype 7
T2 sequence (Q8WUI4 1-952): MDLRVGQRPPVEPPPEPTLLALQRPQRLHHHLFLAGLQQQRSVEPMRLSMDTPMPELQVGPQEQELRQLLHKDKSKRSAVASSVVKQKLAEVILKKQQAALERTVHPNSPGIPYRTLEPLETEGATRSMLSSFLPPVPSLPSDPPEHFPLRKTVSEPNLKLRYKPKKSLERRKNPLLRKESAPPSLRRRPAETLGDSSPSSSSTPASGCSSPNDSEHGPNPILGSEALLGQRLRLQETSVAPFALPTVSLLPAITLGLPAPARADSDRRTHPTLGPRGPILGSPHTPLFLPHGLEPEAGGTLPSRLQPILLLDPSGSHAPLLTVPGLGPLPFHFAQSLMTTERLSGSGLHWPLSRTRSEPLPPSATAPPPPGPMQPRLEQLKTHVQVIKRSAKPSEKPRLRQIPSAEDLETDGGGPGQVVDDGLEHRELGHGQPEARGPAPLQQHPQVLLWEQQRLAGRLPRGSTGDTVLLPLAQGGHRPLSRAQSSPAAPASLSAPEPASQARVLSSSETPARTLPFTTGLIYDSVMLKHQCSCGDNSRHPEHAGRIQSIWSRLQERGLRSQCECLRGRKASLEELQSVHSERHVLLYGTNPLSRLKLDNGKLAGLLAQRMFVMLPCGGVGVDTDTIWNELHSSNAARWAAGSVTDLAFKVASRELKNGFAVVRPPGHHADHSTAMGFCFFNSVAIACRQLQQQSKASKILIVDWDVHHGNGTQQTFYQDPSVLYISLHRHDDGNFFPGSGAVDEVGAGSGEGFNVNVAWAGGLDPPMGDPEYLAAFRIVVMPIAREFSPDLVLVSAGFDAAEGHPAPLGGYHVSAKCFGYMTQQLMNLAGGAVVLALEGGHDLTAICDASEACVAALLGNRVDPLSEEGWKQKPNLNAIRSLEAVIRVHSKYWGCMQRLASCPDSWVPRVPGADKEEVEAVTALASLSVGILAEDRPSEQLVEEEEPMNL
Experimental: as §2, §3

[3] = Injection (1 mg/kg), intravenous

## CS(C)(=O)=Nc1ccc(C(=O)Nc2cc(-c3ccc(F)cc3)ccc2N)cc1 [Compound 1, N-(4-Amino-4'-fluoro-[1,1'-biphenyl]-3-yl)-4-((dimethyl(oxo)-1^λ-6-sulfaneylidene)amino)benzamide]
293T cell
  IC50: > 10000 nM
Jurkat cell
  IC50: 650 nM
HDAC10
  IC50: 22.2 nM
HDAC5
  IC50: > 30000 nM
[1]; Human liver microsomes
  CLint scaled at 1 µM: 17.4 mL/min/kg
  Clliver: 9.45 mL/min/kg
  half-life at 1 µM: 1.67 h
[1]; Mouse liver microsomes
  CLint scaled at 1 µM: 5.55 mL/min/kg
  Clliver: 5.23 mL/min/kg
  half-life at 1 µM: 16.4 h
[2]; [3]
  AUC(0-t): 2280 ng·h/mL
  clearance: 7.29 mL/min/kg
  half-life: 3.01 h
[2]; Injection (1 mg/kg), intravenous, read-out: Vdss
  Vd: 1.68 L/kg
[2]; Oral administration (10 mg/kg)
  AUC(0-t): 15400 ng·h/mL
  Cmax: 1370 ng/mL
  Tmax: 2 h
  bioavailability: 67.4%
  half-life: 2.73 h
HDAC7
  IC50: > 30000 nM
